From patent publication US10542989B2, “Synergistic dietary supplement compositions for enhancing physical performance and energy levels” (LAILA NUTRACEUTICALS, priority 2015, dated 2020)

Experiments:
[1] = test system: Swiss albino mice; assay: Grip strength measurement (grip strength meter); format: in vivo; conditions: oral, 150 mg/kg (Caffeine 10 mg/kg), Mean ± SEM
Experimental: Similarly, after 21 days of treatment, the grip strength of mice was measured by using Grip strength meter (UgoBasile, Italy). Animals were trained and habituated to the experimental environment and conditions for 5 days. Each mice was allowed to grasp the grasping bar and it was pulled back gently in a horizontal plane by tail with gradually increasing force till the pulling force overcomes the grip strength of the animal. The force applied at the moment when the mice leaves its grasp on the grasping bar was recorded as grip strength in grams.
After 21 days of treatment Grip strength of mice was measured by using Grip strength meter (UgoBasile, Italy). Animals were trained and habituated to the experimental environment and conditions for 5 days. Each mice was allowed to grasp the grasping bar and it was pulled back gently in a horizontal plane by tail with gradually increasing force till the pulling force overcomes the grip strength of the animal. The force applied at the moment when the mice leaves its grasp on the grasping bar was recorded as grip strength in grams. Three trials were conducted on each animal and average grip strength was calculated.

[2] = test system: Swiss albino mice; assay: Energy and endurance forced swim test (FST) with constant load; format: in vivo; conditions: for Activity during forced swimming compared to control group (in words): 10 minutes of forced swimming, day 21; for Average Velocity / Distance Travelled (mm) / Fast Swimming Time / Resting Time / Slow Swimming: oral, 21 days, 150 mg/kg (Caffeine 10 mg/kg), 10 min swim on day 21, Mean ± SEM
Experimental: The efficacy of the compositions LI12522F2, LI89032F3 and LI80020F3 for enhancing energy and endurance was further evaluated in an animal study. […] On day 21, one hour after the treatment the mice were forced to swim with a constant load (10% of its body weight attached to its tail) in an acrylic cylinder filled with water. This test was monitored for 10 minutes using the SMART video tracking system ([…]). Various swimming parameters were recorded and analyzed by smart software. […] Swiss albino mice were acclimatized for 5 days before initiation of the study. Healthy Swiss albino mice were selected and randomly divided (n=6) into different treatment groups. […] On day 21, one hour after the treatment the mice were forced to swim with a constant load (10% of its body weight attached to its tail) in an acrylic cylinder filled with water. This test was monitored for 10 minutes using the SMART video tracking system ([…]). Various swimming parameters were recorded and analyzed by smart software. Measured Swimming parameters include, resting time, slow moving time, fast moving time, total moving time, path length of swimming and average velocity.

| SMILES | Average Grip Strength measured after 21 Days [1] | Activity during forced swimming compared to control group (in words) [2] | Average Velocity [2] | Distance Travelled (mm) [2] | Fast Swimming Time [2] | Resting Time [2] | Slow Swimming [2] |
| --- | --- | --- | --- | --- | --- | --- | --- |
| Cn1c(=O)c2c(ncn2C)n(C)c1=O [Caffeine] | 56.07 ± 10.37 grams | more active and energetic | 49.80 | 28740.25 mm | 82.16 s | 399.64 s | 92.12 s |
| C[N+](C)(C)C[C@H](O)CC(=O)[O-] [L-Carnitine] | 39.20 ± 7.51 grams | more active and energetic | 44.24 | 26197.58 mm | 67.64 s | 419.52 s | 104.92 s |
